Test results published in patent US20240102898A1, “IMPROVED METHOD FOR OPTICALLY CLEARING A TISSUE SAMPLE FOR A LIGHT MICROSCOPY EXAMINATION” (MobiCron GmbH, priority 2020, published 2024).

Experiments:
[1] = Vapor pressures of embedding media (FIG. 1, from the literature)
From the text: The vapor pressures of various embedding media are known from the literature.

[2] = comparison of embedding media; cited from earlier work

SMILES	vapor pressure, times lower than that of ethyl cinnamate ([1]; at 25° C.)	volatility, times less volatile than DBE ([1]; expanded section in FIG. 1)	vapor pressure (in words) [2]
O=C(Cc1ccccc1)OCc1ccccc1 [benzyl phenylacetate, benzyl 2-phenylacetate]	approximately 275 times	about 4 times	lowest vapor pressure
CCOC(=O)C=Cc1ccccc1 [ethyl cinnamate, reference compound]	–	–	comparatively high vapor pressure
